Here are results for 4 compounds from ChEMBL document CHEMBL4118272, “The inhibitory effect of kokusaginine on the growth of human breast cancer cells and MDR-resistant cells is mediated by the inhibition of tubulin assembly” (Bioorg Med Chem Lett, 2018).

Molecules are shown by their SMILES. Active and inactive are the calls of the source. No cut-off for these calls is given here.

The species named for test [1] is Sus scrofa. The experiment in a line: Inhibition of porcine MAP-rich tubulin polymerization at 20 uM measured every 30 secs for 30 mins.
Test [2] is filed under the species Homo sapiens. Conditions: 10 uM.
Description: Inhibition of P-gp in human MCF7/ADR cells assessed as increase in intracellular Rh123 accumulation at 10 uM after 2 hrs by flow cytometry
The nature of test [3]: Resistance factor, ratio of IC50 for human MCF7/ADR cells to IC50 for human MCF7 cells. It is filed as functional.
Test [4] in a line: Growth inhibition of human MDA-MB-231/ADR cells after 48 hrs by MTT assay. Conditions: MDA-MB-231, 48 h. It is filed as functional.
In test [5] the test system is MCF7. The experiment in a line: Growth inhibition of human MCF7 cells after 48 hrs by MTT assay. It is filed as functional, cell-based. Conditions: MCF7, 48 h.
The subject of test [6] is NCI/ADR-RES. As to the kind of experiment: Growth inhibition of human MCF7/ADR cells after 48 hrs by MTT assay. Type of test: functional, cell-based.
Test [7] can be described thus: Resistance factor, ratio of IC50 for human MDA-MB-231/ADR cells to IC50 for human MDA-MB-231 cells. It is filed as functional.
In test [8] the test system is MCF7. As to the kind of experiment: Induction of apoptosis in human MCF7 cells at 24 uM after 24 hrs by Annexin V-FITC/PI double staining based flow cytometry relative to control. It is filed as functional.
Test [9] is filed under the species Sus scrofa. The experiment in a line: Inhibition of porcine MAP-rich tubulin polymerization measured every 30 secs for 30 mins.
The target in a further test is Tubulin. As to the kind of experiment: Inhibition of tubulin (unknown origin) polymerization preincubated for 15 mins followed by GTP addition measured for 20 mins by turbidimetric analysis. It is filed as protein-complex assay, Homo sapiens.
Test [10] deals with T1, Tubulin (Homo sapiens) (UniProt P68371+Q9H4B7+P0DPH7+P68366+Q13509+Q71U36+P04350+Q3ZCM7+P07437+P68363+Q9BQE3+Q6PEY2+Q13885+Q9BVA1+Q9BUF5). As to the kind of experiment: Displacement of [3H]colchicine from tubulin (unknown origin) at 1 uM after 10 mins relative to control. It is filed as protein-complex assay.
The test system of test [11] is NCI/ADR-RES. The experiment in a line: Induction of apoptosis in human MCF7/ADR cells at 24 uM after 24 hrs by Annexin V-FITC/PI double staining based flow cytometry relative to control. Type of test: functional.
The next test deals with MDA-MB-231. As to the kind of experiment: Growth inhibition of human MDA-MB-231 cells after 48 hrs by MTT assay. It is filed as functional, cell-based. Conditions: MDA-MB-231, 48 h.
Test [12] has as its system MCF7. As to the kind of experiment: Downregulation of P-gp protein expression level in human MCF7 cells assessed as P-gp protein level up to 24 uM by Western blot analysis. It is filed as functional.
For test [13], the system named is NCI/ADR-RES. As to the kind of experiment: Induction of apoptosis in human MCF7/ADR cells at 12 uM after 24 hrs by Annexin V-FITC/PI double staining based flow cytometry relative to control. Type of test: functional.
The subject of test [14] is NCI/ADR-RES. As to the kind of experiment: Downregulation of P-gp mRNA level in human MCF7/ADR cells by qRT-PCR analysis. It is filed as functional, cell-based.
In test [15] the test system is NCI/ADR-RES. The experiment in a line: Induction of apoptosis in human MCF7/ADR cells at 6 uM after 24 hrs by Annexin V-FITC/PI double staining based flow cytometry relative to control. It is filed as functional.
In test [16] the test system is MCF7. The experiment in a line: Induction of apoptosis in human MCF7 cells at 6 uM after 24 hrs by Annexin V-FITC/PI double staining based flow cytometry relative to control. Type of test: functional.
Test [17] has as its system NCI/ADR-RES. As to the kind of experiment: Downregulation of P-gp expression level in human MCF7/ADR cells assessed as P-gp mRNA level up to 24 uM by qRT-PCR analysis (reference value: 17.5). Type of test: functional.
The species entered for test [18] is Homo sapiens. The experiment in a line: Inhibition of P-gp in human MCF7/ADR cells assessed as increase in intracellular Rh123 accumulation at 24 uM after 2 hrs by flow cytometry. Type of test: cell-based.
Test [19] has as its system NCI/ADR-RES. The experiment in a line: Downregulation of P-gp protein expression level in human MCF7/ADR cells assessed as P-gp protein level up to 24 uM by Western blot analysis (reference value: 0.67). Type of test: functional.
In test [20] the test system is MCF7. As to the kind of experiment: Induction of apoptosis in human MCF7 cells at 12 uM after 24 hrs by Annexin V-FITC/PI double staining based flow cytometry relative to control. Type of test: functional.
The target in test [21] is T1, Tubulin (Homo sapiens). The experiment in a line: Displacement of [3H]colchicine from tubulin (unknown origin) at 5 uM after 10 mins relative to control. Type of test: protein-complex assay.

Regarding `COc1cc2c(c(OC)c1OC)-c1ccc(OC)c(=O)cc1[C@@H](NC(C)=O)CC2`, in the test listed under Sus scrofa [1], the inhibition result is “Active”.

For `COc1ccc(CCN(C)CCCC(C#N)(c2ccc(OC)c(OC)c2)C(C)C)cc1OC` (stereo not drawn), the inhibition entry in the test listed under Homo sapiens [2] is “Active”.

With `COc1cccc2c1C(=O)c1c(O)c3c(c(O)c1C2=O)C[C@@](O)(C(=O)CO)C[C@@H]3O[C@H]1C[C@H](N)[C@H](O)[C@H](C)O1.Cl` [DOXORUBICIN HYDROCHLORIDE], the entries for the “Ratio IC50” value in [3] and in [7] were 29.5 and 22.72, respectively. Moreover, the figures for the IC50 (in test [4]; with MCF7 [5]; in the test on NCI/ADR-RES [6]) were 49.8 µM, 1.72 µM and 50.7 µM, respectively.

Regarding `COc1cc2nc3occc3c(OC)c2cc1OC` [KOKUSAGININE], the Activity in the test with MCF7 [8] is 39.52%; in the test on NCI/ADR-RES [11], 63.29%; with MCF7 [12], 0.02 - 0.09; in the test with NCI/ADR-RES [13], 45.35%; with NCI/ADR-RES [14] it was “Dose-dependent effect”; in the test on NCI/ADR-RES [15], 28.16%. Besides, the Activity turned out to be 12.08% with MCF7 [16], 6.4 in the test on NCI/ADR-RES [17], 0.19 with NCI/ADR-RES [19] and 21.63% with MCF7 [20]. Moreover, the “Ratio IC50” value in test [3] is 0.64; in [7] it was 1.13. The inhibition result was “Dose-dependent effect” in the test filed under Sus scrofa [9], 92% at Tubulin (Homo sapiens) [10] and 98% on Tubulin (Homo sapiens) [21]. Besides, the IC50 stood at 0.82 µM at Tubulin; 10.2 µM in test [4]; 7.23 µM in the test with MCF7 [5]; 9.01 µM in the test on MDA-MB-231; 4.62 µM with NCI/ADR-RES [6]. For the same compound, the inhibition entry in the test filed under Homo sapiens [18] is “Active”.
